# Results from patent US20120083522A1, “MODULATION OF INFLAMMATORY RESPONSES BY FACTOR XI” (Isis Pharmaceuitcals, inc., priority 2009, published 2012).
# In the oligonucleotide strings, read from the 5' end, every base follows the letter of its sugar. An asterisk marks phosphorothioate; unmarked linkages are phosphodiester. Other units and linkages are bracketed, terminal groups are in braces. A string of capitals states the bases alone. e = 2'-O-(2-methoxyethyl) (MOE); [5mC] = 5-methylcytosine; d = 2'-deoxy (DNA)
# System: human Factor XI mRNA
# Test: Antisense inhibition in HepG2 cells by microwalk gapmers, 75 nM, lipofectin (Example 3)
# Assay type: cell-based
# Details: HepG2 cells, 75 nM
# Procedure: These gapmers were designed by creating gapmers shifted slightly upstream and downstream (i.e. “microwalk”) of the original gapmers from Table 3. Gapmers were also created with various motifs, e.g. 5-10-5 MOE, 3-14-3 MOE, and 2-13-5 MOE. These gapmers were tested in vitro. Cultured HepG2 cells at a density of 10,000 cells per well were transfected using lipofectin reagent with 75 nM antisense oligonucleotide. After a treatment period of approximately 24 hours, RNA was isolated from the cells and Factor XI mRNA levels were measured by quantitative real-time PCR. Factor XI mRNA levels were adjusted according to total RNA content, as measured by RIBOGREEN®. Results are presented as percent inhibition of Factor XI, relative to untreated control cells.
# The chimeric antisense oligonucleotides in Table 4 were designed as 5-10-5 MOE, 3-14-3 MOE, and 2-13-5 MOE gapmers. The first listed gapmers in Table 4 are the original gapmers (see Table 3) from which the remaining gapmers were designed via microwalk and are designated by an asterisk. The 5-10-5 gapmers are 20 nucleotides in length, wherein the central gap segment is comprised of 10 2′-deoxynucleotides and is flanked on both sides (in the 5′ and 3′ directions) by wings comprising 5 nucleotides each. The 3-14-3 gapmers are 20 nucleotides in length, wherein the central gap segment is comprised of 14 2′-deoxynucleotides and is flanked on both sides (in the 5′ and 3′ directions) by wings comprising 3 nucleotides each. The 2-13-5 gapmers are 20 nucleotides in length, wherein the central gap segment is comprised of 13 2′-deoxynucleotides. The central gap is flanked on the 5′ end with a wing comprising 2 nucleotides and on the 3′ end with a wing comprising 5 nucleotides. For each of the motifs (5-10-5, 3-14-3, and 2-13-5), each nucleotide in the 5′ wing segment and each nucleotide in the 3′ wing segment has a 2′-MOE modification. The internucleoside linkages throughout each gapmer are phosphorothioate (P═S) linkages. All cytidine residues throughout each gapmer are 5-methylcytidines. “Target start site” indicates the 5′-most nucleotide to which the gapmer is targeted. “Target stop site” indicates the 3′-most nucleotide to which the gapmer is targeted. Each gapmer listed in Table 4 is targeted to SEQ ID NO: 1 (GENBANK Accession No. NM_000128.3).
# [1] = oligonucleotides targeted to nucleobases 1275 to 1318 of SEQ ID NO: 1
# [2] = oligonucleotides targeted to nucleobases 738 to 762 of SEQ ID NO: 1
# [3] = oligonucleotides targeted to nucleobases 1018 to 1042 of SEQ ID NO: 1
# [4] = oligonucleotides targeted to nucleobases 1062 to 1091 of SEQ ID NO: 1
Substance,% inhibition of human Factor XI mRNA levels [1] [%],further results
416939 (antisense e[5mC]*eA*eG*d[5mC]*dG*dG*dA*d[5mC]*dG*dG*d[5mC]*dA*dT*dT*dG*dG*dT*eG*e[5mC]*eA) [compound 416939],88,–
416940 (antisense eG*e[5mC]*eA*dG*d[5mC]*dG*dG*dA*d[5mC]*dG*dG*d[5mC]*dA*dT*dT*dG*dG*eT*eG*e[5mC]) [compound 416940],92,–
416942 (antisense eT*eG*eG*d[5mC]*dA*dG*d[5mC]*dG*dG*dA*d[5mC]*dG*dG*d[5mC]*dA*dT*dT*eG*eG*eT) [compound 416942],85,–
416943 (antisense e[5mC]*eT*eG*dG*d[5mC]*dA*dG*d[5mC]*dG*dG*dA*d[5mC]*dG*dG*d[5mC]*dA*dT*eT*eG*eG) [compound 416943],92,–
416944 (antisense eA*e[5mC]*eT*dG*dG*d[5mC]*dA*dG*d[5mC]*dG*dG*dA*d[5mC]*dG*dG*d[5mC]*dA*eT*eT*eG) [compound 416944],83,–
416975 (antisense e[5mC]*e[5mC]*dG*dT*dG*d[5mC]*dA*dT*d[5mC]*dT*dT*dT*d[5mC]*dT*dT*eG*eG*e[5mC]*eA*eT) [compound 416975],–,% inhibition of human Factor XI mRNA levels [2]: 87%
416976 (antisense eT*e[5mC]*d[5mC]*dG*dT*dG*d[5mC]*dA*dT*d[5mC]*dT*dT*dT*d[5mC]*dT*eT*eG*eG*e[5mC]*eA) [compound 416976],–,% inhibition of human Factor XI mRNA levels [2]: 83%
416977 (antisense eA*eT*d[5mC]*d[5mC]*dG*dT*dG*d[5mC]*dA*dT*d[5mC]*dT*dT*dT*d[5mC]*eT*eT*eG*eG*e[5mC]) [compound 416977],–,% inhibition of human Factor XI mRNA levels [2]: 82%
416978 (antisense e[5mC]*eA*dT*d[5mC]*d[5mC]*dG*dT*dG*d[5mC]*dA*dT*d[5mC]*dT*dT*dT*e[5mC]*eT*eT*eG*eG) [compound 416978],–,% inhibition of human Factor XI mRNA levels [2]: 76%
416979 (antisense eT*e[5mC]*dA*dT*d[5mC]*d[5mC]*dG*dT*dG*d[5mC]*dA*dT*d[5mC]*dT*dT*eT*e[5mC]*eT*eT*eG) [compound 416979],–,% inhibition of human Factor XI mRNA levels [2]: 63%
416980 (antisense eG*eT*d[5mC]*dA*dT*d[5mC]*d[5mC]*dG*dT*dG*d[5mC]*dA*dT*d[5mC]*dT*eT*eT*e[5mC]*eT*eT) [compound 416980],–,% inhibition of human Factor XI mRNA levels [2]: 87%
416981 (antisense e[5mC]*e[5mC]*dG*dG*dG*dA*dT*dG*dA*dT*dG*dA*dG*dT*dG*e[5mC]*eA*eG*eA*eT) [compound 416981],–,% inhibition of human Factor XI mRNA levels [3]: 87%
416982 (antisense eA*e[5mC]*d[5mC]*dG*dG*dG*dA*dT*dG*dA*dT*dG*dA*dG*dT*eG*e[5mC]*eA*eG*eA) [compound 416982],–,% inhibition of human Factor XI mRNA levels [3]: 84%
416983 (antisense eA*eA*d[5mC]*d[5mC]*dG*dG*dG*dA*dT*dG*dA*dT*dG*dA*dG*eT*eG*e[5mC]*eA*eG) [compound 416983],–,% inhibition of human Factor XI mRNA levels [3]: 86%
416986 (antisense eA*eT*dT*d[5mC]*dT*dT*dT*dG*dG*dG*d[5mC]*d[5mC]*dA*dT*dT*e[5mC]*e[5mC]*eT*eG*eG) [compound 416986],–,% inhibition of human Factor XI mRNA levels [4]: 88%
416987 (antisense eG*eA*dT*dT*d[5mC]*dT*dT*dT*dG*dG*dG*d[5mC]*d[5mC]*dA*dT*eT*e[5mC]*e[5mC]*eT*eG) [compound 416987],–,% inhibition of human Factor XI mRNA levels [4]: 80%
416988 (antisense eA*eG*dA*dT*dT*d[5mC]*dT*dT*dT*dG*dG*dG*d[5mC]*d[5mC]*dA*eT*eT*e[5mC]*e[5mC]*eT) [compound 416988],–,% inhibition of human Factor XI mRNA levels [4]: 76%
416990 (antisense eT*eG*dA*dG*dA*dT*dT*d[5mC]*dT*dT*dT*dG*dG*dG*d[5mC]*e[5mC]*eA*eT*eT*e[5mC]) [compound 416990],–,% inhibition of human Factor XI mRNA levels [4]: 76%
416991 (antisense eT*eT*dG*dA*dG*dA*dT*dT*d[5mC]*dT*dT*dT*dG*dG*dG*e[5mC]*e[5mC]*eA*eT*eT) [compound 416991],–,% inhibition of human Factor XI mRNA levels [4]: 87%
416992 (antisense eT*eT*dT*dG*dA*dG*dA*dT*dT*d[5mC]*dT*dT*dT*dG*dG*eG*e[5mC]*e[5mC]*eA*eT) [compound 416992],–,% inhibition of human Factor XI mRNA levels [4]: 84%

Substance,% inhibition of human Factor XI mRNA levels [1] [%],further results
416994 (antisense eT*e[5mC]*dT*dT*dT*dG*dA*dG*dA*dT*dT*d[5mC]*dT*dT*dT*eG*eG*eG*e[5mC]*e[5mC]) [compound 416994],–,% inhibition of human Factor XI mRNA levels [4]: 83%
416995 (antisense eT*eT*d[5mC]*dT*dT*dT*dG*dA*dG*dA*dT*dT*d[5mC]*dT*dT*eT*eG*eG*eG*e[5mC]) [compound 416995],–,% inhibition of human Factor XI mRNA levels [4]: 64%
416996 (antisense eT*eT*dT*d[5mC]*dT*dT*dT*dG*dA*dG*dA*dT*dT*d[5mC]*dT*eT*eT*eG*eG*eG) [compound 416996],–,% inhibition of human Factor XI mRNA levels [4]: 22%
416997 (antisense eA*e[5mC]*dA*dG*dT*dT*dT*d[5mC]*dT*dG*dG*d[5mC]*dA*dG*dG*e[5mC]*e[5mC]*eT*e[5mC]*eG) [compound 416997],84,–
416998 (antisense e[5mC]*eA*d[5mC]*dA*dG*dT*dT*dT*d[5mC]*dT*dG*dG*d[5mC]*dA*dG*eG*e[5mC]*e[5mC]*eT*e[5mC]) [compound 416998],88,–
417001 (antisense eG*eT*dG*d[5mC]*dA*d[5mC]*dA*dG*dT*dT*dT*d[5mC]*dT*dG*dG*e[5mC]*eA*eG*eG*e[5mC]) [compound 417001],83,–
417004 (antisense eT*eT*dG*dG*dT*dG*d[5mC]*dA*d[5mC]*dA*dG*dT*dT*dT*d[5mC]*eT*eG*eG*e[5mC]*eA) [compound 417004],86,–
417005 (antisense eA*eT*dT*dG*dG*dT*dG*d[5mC]*dA*d[5mC]*dA*dG*dT*dT*dT*e[5mC]*eT*eG*eG*e[5mC]) [compound 417005],79,–
417006 (antisense e[5mC]*eA*dT*dT*dG*dG*dT*dG*d[5mC]*dA*d[5mC]*dA*dG*dT*dT*eT*e[5mC]*eT*eG*eG) [compound 417006],81,–
417007 (antisense eG*e[5mC]*dA*dT*dT*dG*dG*dT*dG*d[5mC]*dA*d[5mC]*dA*dG*dT*eT*eT*e[5mC]*eT*eG) [compound 417007],82,–
417008 (antisense eG*eG*d[5mC]*dA*dT*dT*dG*dG*dT*dG*d[5mC]*dA*d[5mC]*dA*dG*eT*eT*eT*e[5mC]*eT) [compound 417008],82,–
417009 (antisense e[5mC]*eG*dG*d[5mC]*dA*dT*dT*dG*dG*dT*dG*d[5mC]*dA*d[5mC]*dA*eG*eT*eT*eT*e[5mC]) [compound 417009],85,–
417010 (antisense eA*e[5mC]*dG*dG*d[5mC]*dA*dT*dT*dG*dG*dT*dG*d[5mC]*dA*d[5mC]*eA*eG*eT*eT*eT) [compound 417010],81,–
417011 (antisense eG*eA*d[5mC]*dG*dG*d[5mC]*dA*dT*dT*dG*dG*dT*dG*d[5mC]*dA*e[5mC]*eA*eG*eT*eT) [compound 417011],86,–
417012 (antisense eG*eG*dA*d[5mC]*dG*dG*d[5mC]*dA*dT*dT*dG*dG*dT*dG*d[5mC]*eA*e[5mC]*eA*eG*eT) [compound 417012],72,–
417013 (antisense e[5mC]*eG*dG*dA*d[5mC]*dG*dG*d[5mC]*dA*dT*dT*dG*dG*dT*dG*e[5mC]*eA*e[5mC]*eA*eG) [compound 417013],86,–
417014 (antisense eG*e[5mC]*dG*dG*dA*d[5mC]*dG*dG*d[5mC]*dA*dT*dT*dG*dG*dT*eG*e[5mC]*eA*e[5mC]*eA) [compound 417014],87,–
417015 (antisense eA*eG*d[5mC]*dG*dG*dA*d[5mC]*dG*dG*d[5mC]*dA*dT*dT*dG*dG*eT*eG*e[5mC]*eA*e[5mC]) [compound 417015],87,–
417016 (antisense e[5mC]*eA*dG*d[5mC]*dG*dG*dA*d[5mC]*dG*dG*d[5mC]*dA*dT*dT*dG*eG*eT*eG*e[5mC]*eA) [compound 417016],85,–
